Reference: publication PMC2699550, “Bacterial Ortholog of Mammalian Translocator Protein (TSPO) with Virulence Regulating Activity” (PLoS ONE, 2009)

Target: T1, bacterial TSPO (P. fluorescens MF37 TSPO)
T1 construct: native protein in bacterial membranes; 438 bp fragment encoding 146 residues; theoretical 17 kDa, 37 kDa band on SDS-PAGE, apparent dimer
Experiment: [3H]-PK […] saturation binding, Scatchard, bacterial membranes
Format: biochemical, Pseudomonas fluorescens
Details: labelled compound; native membranes, 50 mM Tris-HCl pH 7.4; 0.6 to 59 nM tracer; non-specific with 30 µM PK 11195

In the case of `CCC(C)N(C)C(=O)c1cc2ccccc2c(-c2ccccc2Cl)n1` (stereo not shown) [PK 11195], the Kd is reported as 920 pM.
